Publication PMC7412453, “SAR:s for the Antiparasitic Plant Metabolite Pulchrol. 1. The Benzyl Alcohol Functionality” (Molecules, 2020)
Like-named read-outs stand apart in the source and are kept apart here.

Key:
[1] = tested on: T. cruzi epimastigotes; assay: Trypanocidal activity against T. cruzi epimastigotes (XTT); type: cell-based, Trypanosoma cruzi; details: for IC50: read-out: T. cruzi IC50; for selectivity ratio at 72 h: mouse (RAW 264.7 cells) / Trypanosoma cruzi (epimastigotes), read-out: T. cruzi SI (selectivity index, cytotoxicity/anti-protozoal activity)
Method: Trypanocidal activity was determined according to Muelas-Serrano with some modifications. […] Benznidazol (3.1–100 μg/mL) was used as the control drug. Assays were performed in triplicates.

[2] = tested on: L. brasiliensis promastigotes; assay: Leishmanicidal activity against L. brasiliensis promastigotes (XTT); details: for IC50: read-out: L. brasiliensis IC50
Method: (§1) Evaluations against Leishmania parasites: Promastigotes of Leishmania-Leishmania: L. amazonensis, Clone 1, NHOM-BR-76-LTB-012 (Lma, donated by the Paul Sabatier Université, France) and Leishmania-Viannia: L. braziliensis M2904 C192 RJA (M2904, donated by Dr. Jorge Arévalo from Universidad Peruana Cayetano Heredia, Peru). All strains were cultured in Schneider’s insect medium, (pH 6.2) supplemented with 10% FBS and incubated at 26 °C. Medium changes were made every 72 h to maintain a viable parasitic population. Leishmanicidal activity was determined according to Williams with some modifications. Samples were dissolved in DMSO (maximum final concentration 1%) at 10 mg/mL. Promastigotes in logarithmic phase of growth, at the concentration 3 × 10^6 parasites/mL, were distributed (100 μL/well) in 96-well flat bottom microtiter plates. Samples with different concentrations (3.1–100 μg/mL) were added (100 μL). […] Assays were performed in triplicates. The microwell plates were incubated for 72 h at 26 °C. After incubation, a solution of XTT (1 mg/mL) in PBS (pH 7.0 at 37 °C) with PMS (0.06 mg/mL) was added (50 μL/well), and incubated for 3 h at 26 °C. The optical density of each well was measured and the IC50 values calculated.

[3] = tested on: L. amazoniensis promastigotes; assay: Leishmanicidal activity against L. amazoniensis promastigotes (XTT); details: for IC50: read-out: L. amazoniensis IC50
Method: as §1, with “All” for “Evaluations against Leishmania parasites: Promastigotes of Leishmania-Leishmania: L. amazonensis, Clone 1, NHOM-BR-76-LTB-012 (Lma, donated by the Paul Sabatier Université, France) and Leishmania-Viannia: L. braziliensis M2904 C192 RJA (M2904, donated by Dr. Jorge Arévalo from Universidad Peruana Cayetano Heredia, Peru). All”

[4] = tested on: Raw 264.7 murine macrophage cell line; assay: Cytotoxicity in RAW cells (Resazurin); type: cell-based; details: RAW cells, 72 h at 37 °C, Resazurin, triplicate
Method: (§2) Evaluations against RAW cells: The Raw 264.7 murine macrophage cell line was purchased from the American Type Culture Collection (ATCC-TIB71). The cells were maintained in DMEM-HG medium supplemented with 10% fetal bovine serum, 100 U/mL of penicillin and 100 μg/mL of streptomycin, and sodium bicarbonate (2.2 g/L) in humidified atmosphere at 37 °C with 5% CO2. Samples were prepared as described above and added (in 100 μL DMSO) at different concentrations (6.2–200 μg/mL). Medium blank, control drugs and cell growth controls were included to evaluate cell viability. The plates were incubated for 72 h at 37 °C with 5% CO2. After incubation for the indicated time, the cells were washed, after which 10 μL of Resazurin reagent (2.0 mM) was added. They were further incubated at 37 °C for 3 h in a humidified incubator. The IC50 values were assessed using a fluorometric reader (540 nm excitation, 590 nm emission) and the Gen5 software. All assays were performed in triplicate.

[5] = Cytotoxicity in RAW cells (Resazurin); type: cell-based, murine; details: mouse
Method: as §2

[6] = tested on: promastigotes of L. mexicana; design: method as in doi:10.1016/j.phytol.2009.10.002; details: not part of this investigation; cited from earlier work
[7] = promastigotes, 72 h at 26 °C, XTT, triplicates
[8] = Trypanosoma cruzi, epimastigotes, 72 h at 26 °C, XTT, triplicates
[9] = L. brasiliensis SI (selectivity index, cytotoxicity/anti-protozoal activity), RAW cell IC50 / L. brasiliensis IC50
[10] = L. amazoniensis SI (selectivity index, cytotoxicity/anti-protozoal activity), RAW cell IC50 / L. amazoniensis IC50
[11] = RAW cells, 72 h at 37 °C, Resazurin, triplicate, read-out: Cytotoxicity IC50

| Compound | T. cruzi SI (selectivity index, cytotoxicity/anti-protozoal activity) ([1]; RAW cell IC50 / T. cruzi IC50) | IC50 ([1]; epimastigotes, 72 h at 26 °C, XTT, triplicates) | L. brasiliensis SI (selectivity index, cytotoxicity/anti-protozoal activity) ([2]; RAW cell IC50 / L. brasiliensis IC50) | IC50 [2, 7] | L. amazoniensis SI (selectivity index, cytotoxicity/anti-protozoal activity) ([3]; RAW cell IC50 / L. amazoniensis IC50) | IC50 [3, 7] | IC50 [4] | IC50 [1, 8] | selectivity ratio at 72 h ([1]; RAW cell IC50 / T. cruzi IC50) | IC50 ([2]; 72 h) | selectivity ratio at 72 h [2, 9] | selectivity ratio at 72 h [3, 10] | IC50 ([3]; Leishmania amazonensis, 72 h) | IC50 at 72 h [5] | selectivity ratio at 72 h [2] | selectivity ratio at 72 h [3] | IC50 at 72 h [5, 11] | IC50 ([1]; Trypanosoma cruzi, 72 h) | IC50 [6] |
| --- | --- | --- | --- | --- | --- | --- | --- | --- | --- | --- | --- | --- | --- | --- | --- | --- | --- | --- | --- |
| 2-Methoxy-6,6-dimethyl-9-(((4-methoxypentyl)oxy)methyl)-6H-benzo[c]chromene [3e] | 3.5 | 9 ± 0.6 µM | 0.3 | 127 ± 11.3 µM | 1.1 | 28.2 ± 8.5 µM | 31.6 ± 5.6 µM | – | – | – | – | – | – | – | – | – | – | – | – |
| C=CC(=O)OCc1ccc2c(c1)-c1cc(OC)ccc1OC2(C)C [4j, (2-Methoxy-6,6-dimethyl-6H-benzo[c]chromen-9-yl)methyl acrylate] | – | – | – | – | – | – | – | 7.4 ± 0.9 µM | > 5 | 5.7 ± 0.5 µM | > 5 | > 5 | 6.9 ± 1.7 µM | 40.1 ± 12.6 µM | – | – | – | – | – |
| COc1ccc2c(c1)-c1cc(C(=O)O)ccc1C(C)(C)O2 [5c, 2-Methoxy-6,6-dimethyl-6H-benzo[c]chromene-9-carboxylic acid] | – | – | – | – | – | – | – | 56.3 µM | 4.4 | 65.1 ± 16.5 µM | 3.8 | 1.2 | 199 µM | 246 ± 24.6 µM | – | – | – | – | – |
| COc1ccc2c(c1)-c1cc(COC(=O)c3ccco3)ccc1C(C)(C)O2 [4k, (2-Methoxy-6,6-dimethyl-6H-benzo[c]chromen-9-yl)methyl furan-2-carboxylate] | – | – | – | – | – | – | – | 3.8 ± 0.3 µM | 7.9 | 12.8 ± 0.1 µM | 2.4 | 2.4 | 12.8 ± 1.8 µM | 30.5 ± 3.6 µM | – | – | – | – | – |
| COc1ccc2c(c1)-c1cc(CNC(C)C)ccc1C(C)(C)O2 [3f, N-((2-Methoxy-6,6-dimethyl-6H-benzo[c]chromen-9-yl)methyl)propan-2-amine] | – | – | – | – | – | – | – | 70.6 ± 9.6 µM | 0.4 | 83.5 ± 32.1 µM | 0.4 | 0.4 | 67.8 ± 13.8 µM | 29.5 ± 9.6 µM | – | – | – | – | – |
| COc1ccc2c(c1)-c1cc(COC(C)C)ccc1C(C)(C)O2 [3d, 9-(Isopropoxymethyl)-2-methoxy-6,6-dimethyl-6H-benzo[c]chromene] | – | – | – | – | – | – | – | 12.9 ± 0.3 µM | 2.5 | 35.2 ± 3.2 µM | – | – | 35.2 ± 3.8 µM | – | 0.9 | 0.9 | 32 ± 0.3 µM | – | – |
| COC(=O)c1ccc2c(c1)-c1cc(OC)ccc1OC2(C)C [5d, Methyl 2-Methoxy-6,6-dimethyl-6H-benzo[c]chromene-9-carboxylate] | – | – | – | – | – | – | – | 31.8 ± 2.4 µM | 1.2 | 18.4 ± 5.7 µM | 2.1 | 0.7 | 59 ± 1.3 µM | 38.2 ± 2.7 µM | – | – | – | – | – |
| COc1ccc2c(c1)-c1cc(CO)ccc1C(C)(C)O2 [compound 1, (2-methoxy-6,6-dimethyl-6H-benzo[c]chromen-9-yl)methanol] | – | – | – | – | – | – | – | – | 1.7 | 59.2 ± 11.8 µM | – | – | 77.7 ± 5.6 µM | – | 0.5 | 0.4 | 30.7 ± 1.1 µM | 18.5 ± 9.6 µM | 17 µM |
| COc1ccc2c(c1)-c1cc(COC(=O)C(C)C)ccc1C(C)(C)O2 [4b, (2-Methoxy-6,6-dimethyl-6H-benzo[c]chromen-9-yl)methyl isobutyrate] | – | – | – | – | – | – | – | 8.8 ± 0.9 µM | 3 | 17.6 ± 0.9 µM | 1.5 | 1 | 26.7 ± 2.4 µM | 26.4 ± 5.9 µM | – | – | – | – | – |
